Results as given in US9023986B2, “Glucose-dependent insulinotropic peptide analogs” (Hoffmann-La Roche Inc., priority 2010, dated 2015).

Biological target: T1, human GIPR (Homo sapiens, UniProt P48546)
T1 construct: host or cells: CHO-K1
T1 sequence (P48546 22-466): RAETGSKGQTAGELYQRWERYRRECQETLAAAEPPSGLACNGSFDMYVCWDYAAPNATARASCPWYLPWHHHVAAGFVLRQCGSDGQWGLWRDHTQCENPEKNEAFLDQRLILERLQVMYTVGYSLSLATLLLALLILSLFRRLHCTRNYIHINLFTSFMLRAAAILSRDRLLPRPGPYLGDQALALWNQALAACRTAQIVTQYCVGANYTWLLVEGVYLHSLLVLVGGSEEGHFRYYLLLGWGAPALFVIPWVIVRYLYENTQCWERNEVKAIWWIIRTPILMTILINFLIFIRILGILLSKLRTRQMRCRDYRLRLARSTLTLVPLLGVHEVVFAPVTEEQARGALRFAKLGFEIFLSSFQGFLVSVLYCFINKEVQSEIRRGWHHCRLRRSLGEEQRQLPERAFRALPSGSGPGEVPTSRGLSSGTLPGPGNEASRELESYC
Assay: cAMP production in CHO-K1 cells expressing human GIPR (LANCE cAMP assay)
Type: cell-based
Conditions: for Emax: CHO-K1, read-out: % activation of cAMP (maximal stimulation)
Protocol: CHO—K1 cells expressing human GIPR were obtained from DiscoverX Corporation (Fremont, Calif.). The cells were cultured in Ham's F-12 nutrient media supplemented with 10% foetal bovine serum, 800 μg/ml geneticin, 300 μg/ml hydromycin, 2 mM L-glutamine, and Penicillin-streptomycin (100 units, 100 μg) at 37° C. in a 5% CO2 incubator. The cells were harvested at 90% confluence.
The cells were suspended in Ham's F-12 nutrient media to a concentration of 200,000 cells/ml. The cells were then plated in a 384 well plate at with […] of the suspension added per well. The cells were incubated overnight at 37° C. in a 5% CO2 incubator.
The activity of the compounds was determined by stimulating the CHO—K1 cells with the test compound, and measuring the levels of cAMP produced. The activity of the compounds was compared to the activity of native GIP, as GIP stimulates cAMP production. 6 μl of the test compound in stimulation buffer (990 ml Hank's Balanced Salt solution (HBSS) (1×) (Invitrogen Corp #14025-092), 10 ml Hepes buffer solution (1 mol·L) (Invitrogen Corp 15630-080), 1 g BSA (final 0.1%), and 1 ml IBMX 250 mM stock prepared fresh in DMSO (Sigma-Aldrich 15879)) were added to cells, followed by 6 μl of Alexa Fluor® 647-anti cAMP antibody (Perkin Elmer) in stimulation buffer. […] The well plate was centrifuged for 3 min at 300 rpm, and incubated at room temperature for 45 minutes. 12 μl of detection mixture (biotin cAMP and EUW8044 labeled streptavidin (Eu-SA) in cAMP Detection Buffer (Perkin Elmer)) was added and incubated for 60 min at room temperature.
The levels of cAMP produced were measured according to the detailed protocol outlined in the Perkin Elmer LANCE cAMP Assay Perkin Elmer Lance cAMP Kit manual. The activity of the compounds was compared to the activity of native GIP.
The plates are read on a TRF detection instrument, EnVision® (Perkin Elmer) (excitation at 340 nm and emission at 665 nm). The values of the cAMP signal are obtained from the standard cAMP curve and used to determine the amount of maximal stimulation, and EC50 for stimulating the cAMP signal.

Compound | % activation of cAMP (maximal stimulation) (CHO-K1 cells expressing human GIPR, compared to native GIP) [%] | EC50 [nM] | Emax [%]
Ac-(D)Tyr-Ala-Glu-Gly-Thr-Phe-Ile-Ser-Asp-Tyr-Ser-Ile-Ala-Met-Asp-Lys-Ile-His-Gln-Gln-Asp-Phe-Val-Asn-Trp-Leu-Leu-Ala-Gln-Lys-NH2 [Example 6] | 102 | – | –
CC[C@H](C)[C@H](NC(=O)[C@H](CO)NC(=O)[C@H](Cc1ccc(O)cc1)NC(=O)[C@H](CC(=O)O)NC(=O)[C@H](CO)NC(=O)[C@@H](NC(=O)[C@H](Cc1ccccc1)NC(=O)[C@@H](NC(=O)CNC(=O)[C@H](CCC(=O)O)NC(=O)[C@H](C)NC(=O)CCc1ccccc1)[C@@H](C)O)[C@@H](C)CC)C(=O)N[C@@H](C)C(=O)N[C@@H](CCSC)C(=O)N[C@@H](CC(=O)O)C(=O)N[C@@H](CCCCN)C(=O)N[C@H](C(=O)N[C@@H](Cc1c[nH]cn1)C(=O)N[C@@H](CCC(N)=O)C(=O)N[C@@H](CCC(N)=O)C(=O)N[C@@H](CC(=O)O)C(=O)N[C@@H](Cc1ccccc1)C(=O)N[C@H](C(=O)N[C@@H](CC(N)=O)C(=O)N[C@@H](Cc1c[nH]c2ccccc12)C(=O)N[C@@H](CC(C)C)C(=O)N[C@@H](CC(C)C)C(=O)N[C@@H](C)C(=O)N[C@@H](CCC(N)=O)C(=O)N[C@@H](CCCCN)C(N)=O)C(C)C)[C@@H](C)CC [Example 9] | – | 0.797 | 101
CC[C@H](C)[C@H](NC(=O)[C@H](CO)NC(=O)[C@H](Cc1ccc(O)cc1)NC(=O)[C@H](CC(=O)O)NC(=O)[C@H](CO)NC(=O)[C@@H](NC(=O)[C@H](Cc1ccccc1)NC(=O)[C@@H](NC(=O)CNC(=O)[C@H](CCC(=O)O)NC(=O)[C@H](C)NC(=O)[C@@H](Cc1ccc(Cl)cc1)NC(C)=O)[C@@H](C)O)[C@@H](C)CC)C(=O)N[C@@H](C)C(=O)N[C@@H](CCSC)C(=O)N[C@@H](CC(=O)O)C(=O)N[C@@H](CCCCN)C(=O)N[C@H](C(=O)N[C@@H](Cc1c[nH]cn1)C(=O)N[C@@H](CCC(N)=O)C(=O)N[C@@H](CCC(N)=O)C(=O)N[C@@H](CC(=O)O)C(=O)N[C@@H](Cc1ccccc1)C(=O)N[C@H](C(=O)N[C@@H](CC(N)=O)C(=O)N[C@@H](Cc1c[nH]c2ccccc12)C(=O)N[C@@H](CC(C)C)C(=O)N[C@@H](CC(C)C)C(=O)N[C@@H](C)C(=O)N[C@@H](CCC(N)=O)C(=O)N[C@@H](CCCCN)C(N)=O)C(C)C)[C@@H](C)CC [Example 14] | – | 0.025 | 106
CC[C@H](C)[C@H](NC(=O)[C@H](CO)NC(=O)[C@H](Cc1ccc(O)cc1)NC(=O)[C@H](CC(=O)O)NC(=O)[C@H](CO)NC(=O)[C@@H](NC(=O)[C@H](Cc1ccccc1)NC(=O)[C@@H](NC(=O)CNC(=O)[C@H](CCC(=O)O)NC(=O)[C@H](C)NC(=O)[C@@H](Cc1cc(F)c(F)c(F)c1)NC(C)=O)[C@@H](C)O)[C@@H](C)CC)C(=O)N[C@@H](C)C(=O)N[C@@H](CCSC)C(=O)N[C@@H](CC(=O)O)C(=O)N[C@@H](CCCCN)C(=O)N[C@H](C(=O)N[C@@H](Cc1c[nH]cn1)C(=O)N[C@@H](CCC(N)=O)C(=O)N[C@@H](CCC(N)=O)C(=O)N[C@@H](CC(=O)O)C(=O)N[C@@H](Cc1ccccc1)C(=O)N[C@H](C(=O)N[C@@H](CC(N)=O)C(=O)N[C@@H](Cc1c[nH]c2ccccc12)C(=O)N[C@@H](CC(C)C)C(=O)N[C@@H](CC(C)C)C(=O)N[C@@H](C)C(=O)N[C@@H](CCC(N)=O)C(=O)N[C@@H](CCCCN)C(N)=O)C(C)C)[C@@H](C)CC [Example 18] | – | 0.104 | 100
CC[C@H](C)[C@H](NC(=O)[C@H](CO)NC(=O)[C@H](Cc1ccc(O)cc1)NC(=O)[C@H](CC(=O)O)NC(=O)[C@H](CO)NC(=O)[C@@H](NC(=O)[C@H](Cc1ccccc1)NC(=O)[C@@H](NC(=O)CNC(=O)[C@H](CCC(=O)O)NC(=O)[C@H](C)NC(=O)[C@@H](Cc1ccccc1Cl)NC(C)=O)[C@@H](C)O)[C@@H](C)CC)C(=O)N[C@@H](C)C(=O)N[C@@H](CCSC)C(=O)N[C@@H](CC(=O)O)C(=O)N[C@@H](CCCCN)C(=O)N[C@H](C(=O)N[C@@H](Cc1c[nH]cn1)C(=O)N[C@@H](CCC(N)=O)C(=O)N[C@@H](CCC(N)=O)C(=O)N[C@@H](CC(=O)O)C(=O)N[C@@H](Cc1ccccc1)C(=O)N[C@H](C(=O)N[C@@H](CC(N)=O)C(=O)N[C@@H](Cc1c[nH]c2ccccc12)C(=O)N[C@@H](CC(C)C)C(=O)N[C@@H](CC(C)C)C(=O)N[C@@H](C)C(=O)N[C@@H](CCC(N)=O)C(=O)N[C@@H](CCCCN)C(N)=O)C(C)C)[C@@H](C)CC [Example 12] | – | 0.121 | 104
CC[C@H](C)[C@H](NC(=O)[C@H](CO)NC(=O)[C@H](Cc1ccc(O)cc1)NC(=O)[C@H](CC(=O)O)NC(=O)[C@H](CO)NC(=O)[C@@H](NC(=O)[C@H](Cc1ccccc1)NC(=O)[C@@H](NC(=O)CNC(=O)[C@H](CCC(=O)O)NC(=O)[C@H](C)NC(=O)[C@@H](Cc1cccnc1)NC(C)=O)[C@@H](C)O)[C@@H](C)CC)C(=O)N[C@@H](C)C(=O)N[C@@H](CCSC)C(=O)N[C@@H](CC(=O)O)C(=O)N[C@@H](CCCCN)C(=O)N[C@H](C(=O)N[C@@H](Cc1c[nH]cn1)C(=O)N[C@@H](CCC(N)=O)C(=O)N[C@@H](CCC(N)=O)C(=O)N[C@@H](CC(=O)O)C(=O)N[C@@H](Cc1ccccc1)C(=O)N[C@H](C(=O)N[C@@H](CC(N)=O)C(=O)N[C@@H](Cc1c[nH]c2ccccc12)C(=O)N[C@@H](CC(C)C)C(=O)N[C@@H](CC(C)C)C(=O)N[C@@H](C)C(=O)N[C@@H](CCC(N)=O)C(=O)N[C@@H](CCCCN)C(N)=O)C(C)C)[C@@H](C)CC [Example 11] | – | 0.08 | 102
CC[C@H](C)[C@H](NC(=O)[C@H](CO)NC(=O)[C@H](Cc1ccc(O)cc1)NC(=O)[C@H](CC(=O)O)NC(=O)[C@H](CO)NC(=O)[C@@H](NC(=O)[C@H](Cc1ccccc1)NC(=O)[C@@H](NC(=O)CNC(=O)[C@H](CCC(=O)O)NC(=O)[C@H](C)NC(=O)[C@@H](Cc1cc(F)cc(F)c1)NC(C)=O)[C@@H](C)O)[C@@H](C)CC)C(=O)N[C@@H](C)C(=O)N[C@@H](CCSC)C(=O)N[C@@H](CC(=O)O)C(=O)N[C@@H](CCCCN)C(=O)N[C@H](C(=O)N[C@@H](Cc1c[nH]cn1)C(=O)N[C@@H](CCC(N)=O)C(=O)N[C@@H](CCC(N)=O)C(=O)N[C@@H](CC(=O)O)C(=O)N[C@@H](Cc1ccccc1)C(=O)N[C@H](C(=O)N[C@@H](CC(N)=O)C(=O)N[C@@H](Cc1c[nH]c2ccccc12)C(=O)N[C@@H](CC(C)C)C(=O)N[C@@H](CC(C)C)C(=O)N[C@@H](C)C(=O)N[C@@H](CCC(N)=O)C(=O)N[C@@H](CCCCN)C(N)=O)C(C)C)[C@@H](C)CC [Example 17] | – | 0.003 | 99.6
CC[C@H](C)[C@H](NC(=O)[C@H](CO)NC(=O)[C@H](Cc1ccc(O)cc1)NC(=O)[C@H](CC(=O)O)NC(=O)[C@H](CO)NC(=O)[C@@H](NC(=O)[C@H](Cc1ccccc1)NC(=O)[C@@H](NC(=O)CNC(=O)[C@H](CCC(=O)O)NC(=O)[C@H](C)NC(=O)CCc1ccc(O)cc1)[C@@H](C)O)[C@@H](C)CC)C(=O)N[C@@H](C)C(=O)N[C@@H](CCSC)C(=O)N[C@@H](CC(=O)O)C(=O)N[C@@H](CCCCN)C(=O)N[C@H](C(=O)N[C@@H](Cc1c[nH]cn1)C(=O)N[C@@H](CCC(N)=O)C(=O)N[C@@H](CCC(N)=O)C(=O)N[C@@H](CC(=O)O)C(=O)N[C@@H](Cc1ccccc1)C(=O)N[C@H](C(=O)N[C@@H](CC(N)=O)C(=O)N[C@@H](Cc1c[nH]c2ccccc12)C(=O)N[C@@H](CC(C)C)C(=O)N[C@@H](CC(C)C)C(=O)N[C@@H](C)C(=O)N[C@@H](CCC(N)=O)C(=O)N[C@@H](CCCCN)C(N)=O)C(C)C)[C@@H](C)CC [Example 7] | – | 0.095 | 103
